For the assay, the target named is T1, cloned human CCR8 receptor stably expressed in L1.2 cells (Homo sapiens, UniProt P51685).
T1 construct: expressed in transfected cells
Description: whole cell binding screen: inhibition of biotinylated human I309 binding to CCR8 (FMAT 8100 HTS). Particulars: L1.2/hCCR8 cells, biotinylated human I-309, 10 point concentration response starting at 10 μM; read-out: Ki of compounds to inhibit I-309 binding to CCR8. From the text: This whole cell binding screen evaluates the ability of compounds to inhibit biotinlyated human I309 binding to the cloned human CCR8 receptor stably expressed in L1.2 cells. Human CCR8 gene was amplified by PCR using PFU polymerase under standard conditions from human genomic DNA purchased from Stratagene. The PCR primers used were:
The 5′ and 3′ primers contained flanking enzyme sites (Bam Hi and Not 1,respectively), which were used to subclone the gene into pcDNA3.1. […] The CCR8 vector was then transfected into L1.2 cells (murine pre-B cells) by electroporation.
Compounds were screened using the FMAT™ 8100 HTS System (purchased from Applied Biosystems).
A suspension was prepared of L1.2/hCCR8 cells at 4.0×10^5 cells/mL in a binding buffer (Buffer consisting of Hanks Balanced Salt Solution (without phenol red), 10 mM HEPES, 0.1% Fatty Acid Free BSA, 0.02% Sodium Azide).
Dilution series of 10 mM stock concentrations of the test compounds were prepared in DMSO and further diluted into binding buffer defined above) to three times the final assay concentration.
10 point concentration response curve is constructed for each compound, starting at 10 μM (final assay concentration in Binding Buffer). […] The components were mixed in wells by covering the plate with aluminum foil and rotating for 0.5 hours. […] Average fluorescence reported for each concentration was normalized to percent inhibition based on negative (no inhibitor) and positive (100 nM excess unlabeled I309 (R and D Systems)) controls.

T1 sequence (P51685 whole entry): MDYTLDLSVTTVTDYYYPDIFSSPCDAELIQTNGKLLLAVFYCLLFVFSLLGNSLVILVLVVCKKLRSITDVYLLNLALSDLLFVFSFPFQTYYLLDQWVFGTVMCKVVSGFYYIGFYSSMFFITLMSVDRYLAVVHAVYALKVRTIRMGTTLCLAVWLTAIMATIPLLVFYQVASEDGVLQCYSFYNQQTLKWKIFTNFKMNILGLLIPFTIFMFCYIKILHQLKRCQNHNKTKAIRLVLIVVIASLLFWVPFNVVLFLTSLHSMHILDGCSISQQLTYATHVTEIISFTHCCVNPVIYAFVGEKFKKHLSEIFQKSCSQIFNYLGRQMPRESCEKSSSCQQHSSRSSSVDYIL

In general, Ki refers to the equilibrium dissociation constant of an inhibitor or competing ligand from its target. For the molecule `CCOC(=O)N1CCC(NS(=O)(=O)c2cc3c(c(NC(=O)c4ccccc4)c2)CCCC3)CC1` [Compound H-56, 4-(4-Benzoylamino-5,6,7,8-tetrahydro-naphthalene-2-sulfonylamino)-piperidine-1-carboxylic acid ethyl ester], the Ki was less than 500 nM.
The result for `Cc1ccccc1C(=O)Nc1ccc(S(=O)(=O)NC2CCN(C(=O)C(C)C)CC2)c2c1CCCC2` [Compound E-12, N-[4-(1-Isobutyryl-piperidin-4-ylsulfamoyl)-5,6,7,8-tetrahydro-naphthalen-1-yl]-2-methyl-benzamide] reads less than 500 nM; that for `CCOC(=O)N1CCC(NS(=O)(=O)c2cccc3c(NC(=O)C4CCCCC4)cccc23)CC1` [Compound H-7, 4-[5-(Cyclohexanecarbonyl-amino)-naphthalene-1-sulfonylamino]-piperidine-1-carboxylic acid ethyl ester], less than 500 nM.
On to `CCNC(=O)N1CCC(NS(=O)(=O)c2ccc(N3C(=O)c4ccccc4C3=O)c3ccccc23)CC1` [Compound C-98, 4-[4-(1,3-Dioxo-1,3-dihydro-isoindol-2-yl)-naphthalene-1-sulfonylamino]-piperidine-1-carboxylic acid ethylamide], for which the Ki is less than 1000 nM.
To `Cc1ccccc1C(=O)Nc1ccc(S(=O)(=O)N[C@H]2CCN(C(=O)[C@H]3CCCN3)C[C@H]2C)c2ccccc12` [Compound J-7, (3R, 4S)-2-Methyl-N-{4-[3-methyl-1-((R)pyrrolidine-2-carbonyl)-piperidin-4-ylsuffamoyl]-naphthalen-1-yl}-benzamide] belongs less than 500 nM; to `CCOC(=O)N1CCC(NS(=O)(=O)c2cccc3c(C(=O)NC4CCCCC4C)cccc23)CC1` (racemic) [Compound H-24, (±)-4-[5-(2-Methyl-cyclohexylcarbamoyl)-naphthalene-1-sulfonylamino]-piperidine-1-carboxylic acid ethyl ester], less than 500 nM; to `Cc1ccccc1C(=O)Nc1ccc(S(=O)(=O)N[C@H]2CCN(C(=O)[C@H](C)N)C[C@H]2C)c2ccccc12` [Compound J-5, (3R, 4S)-N-{4-[1-(2-(S)-Amino-propionyl)-3-methyl-piperidin-4-ylsulfamoyl]-naphthalen-1-yl}-2-methyl-benzamide], less than 500 nM.
Regarding `CCOC(=O)N1CCC(NS(=O)(=O)c2ccc(CNCc3ncc[nH]3)c3ccccc23)CC1` [Compound G-9, 4-(4-{[(lH-Imidazol-2-ylmethyl)-amino]-methyl}-naphthalene-1-sulfonylamino)-piperidine-1-carboxylic acid ethyl ester], the Ki was less than 30000 nM.
As for `Cc1ccccc1C(=O)Nc1ccc(S(=O)(=O)N[C@H]2CCN(C(=O)[C@H](C)N)C[C@@H]2C)c2ccccc12` [Compound J-2, (3S, 4S)-N-{4-[1-(2-(S)-Amino-propionyl)-3-methyl-piperidin-4-ylsulfamoyl]-naphthalen-1-yl}-2-methyl-benzamide], the inhibitory constant (Ki) was less than 500 nM.
The result for `O=C(Nc1ccc(S(=O)(=O)NC2CCNCC2)c2ccccc12)c1c(F)cccc1C(F)(F)F` [Compound C-107, 2-Fluoro-N-[4-(piperidin-4-ylsulfamoyl)-naphthalen-1-yl]-6-trifluoromethyl-benzamide] reads less than 30000 nM.
In the case of `CCCC(=O)N1CC[C@H](NS(=O)(=O)c2ccc(NC(=O)c3ccccc3C)c3ncccc23)[C@H](C)C1` [Compound J-41, (3R, 4S)-N-[5-(1-Butyryl-3-methyl-piperidin-4-ylsulfamoyl)-quinolin-8-yl]-2-methyl-benzamide], the Ki was less than 500 nM.
Regarding `Cc1ccccc1C(=O)Nc1cccc2c(S(=O)(=O)NC3CCN(C(=O)N4CCOCC4)CC3)cccc12` [Compound H-11, 2-Methyl-N-{5-[1-(morpholine-4-carbonyl)-piperidin-4-ylsulfamoyl]-naphthalen-1-yl}-benzamide], the Ki was less than 500 nM.

Source of the values: patent publication US7491827B2, “Aryl sulfonamides useful as inhibitors of chemokine receptor activity” (Millennium Pharmaceuticals, Inc., priority 2003, dated 2009).
